# Tests used:
# EphA3 = molecular target: T1, EphA3 (Homo sapiens, UniProt P29320); assay: Eph receptor activation in HEK 293 cells overexpressing EphA3; type: cell-based; conditions: HEK 293 cells overexpressing EphA3, compared to EphA2 and EphA4
# T1 construct: expressed in transfected cells; host or cells: HEK 293
# T1 sequence (P29320 21-983): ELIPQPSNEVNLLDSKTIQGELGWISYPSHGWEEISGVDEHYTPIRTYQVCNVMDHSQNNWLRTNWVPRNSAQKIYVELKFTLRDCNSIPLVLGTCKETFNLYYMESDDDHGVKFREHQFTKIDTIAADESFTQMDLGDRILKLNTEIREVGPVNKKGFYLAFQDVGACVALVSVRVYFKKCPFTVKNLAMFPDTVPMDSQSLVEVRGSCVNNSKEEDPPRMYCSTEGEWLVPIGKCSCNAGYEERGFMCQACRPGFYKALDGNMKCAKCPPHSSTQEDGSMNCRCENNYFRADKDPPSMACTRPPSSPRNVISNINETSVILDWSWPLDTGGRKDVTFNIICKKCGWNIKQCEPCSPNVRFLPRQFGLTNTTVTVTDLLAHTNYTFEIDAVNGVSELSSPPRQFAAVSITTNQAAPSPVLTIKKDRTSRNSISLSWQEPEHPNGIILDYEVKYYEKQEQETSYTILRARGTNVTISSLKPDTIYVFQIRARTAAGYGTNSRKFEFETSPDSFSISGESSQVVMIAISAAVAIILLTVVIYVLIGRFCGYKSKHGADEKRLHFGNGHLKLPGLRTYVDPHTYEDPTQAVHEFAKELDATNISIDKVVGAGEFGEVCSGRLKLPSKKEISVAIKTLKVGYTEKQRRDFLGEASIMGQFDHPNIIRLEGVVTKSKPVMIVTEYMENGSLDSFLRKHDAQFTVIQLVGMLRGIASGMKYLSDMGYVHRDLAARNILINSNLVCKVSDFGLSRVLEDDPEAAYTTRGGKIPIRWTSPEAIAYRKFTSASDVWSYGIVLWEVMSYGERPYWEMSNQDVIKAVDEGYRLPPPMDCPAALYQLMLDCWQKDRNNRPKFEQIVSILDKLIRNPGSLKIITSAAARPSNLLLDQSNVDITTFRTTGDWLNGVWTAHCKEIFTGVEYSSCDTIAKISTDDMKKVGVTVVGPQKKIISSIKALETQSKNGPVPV
# Experimental: Cells were plated in 24-well dishes at a density of 100,000 cells/well and grown for 24 hours prior to stimulation with appropriate compounds and ephrins for the given amounts of time. Compounds were prepared in DMSO at 500 times the final concentrations and 0.2% DMSO was used as vehicle control. Following treatment, cells were lysed directly in SDS Gel Loading Buffer and immunoblotted as described previously. […] For this purpose, HEK 293 cell lines overexpressing EphA1, EphA2, EphA3, EphA4, and EphB3 kinases were utilized.
# EphB4 = molecular target: T2, EphB4 (Homo sapiens, UniProt P54760); assay: Activation of endogenous EphB4 in HEK 293 vector control cells; type: cell-based
# T2 construct: host or cells: HEK 293 vector control cells
# T2 sequence (P54760 16-987): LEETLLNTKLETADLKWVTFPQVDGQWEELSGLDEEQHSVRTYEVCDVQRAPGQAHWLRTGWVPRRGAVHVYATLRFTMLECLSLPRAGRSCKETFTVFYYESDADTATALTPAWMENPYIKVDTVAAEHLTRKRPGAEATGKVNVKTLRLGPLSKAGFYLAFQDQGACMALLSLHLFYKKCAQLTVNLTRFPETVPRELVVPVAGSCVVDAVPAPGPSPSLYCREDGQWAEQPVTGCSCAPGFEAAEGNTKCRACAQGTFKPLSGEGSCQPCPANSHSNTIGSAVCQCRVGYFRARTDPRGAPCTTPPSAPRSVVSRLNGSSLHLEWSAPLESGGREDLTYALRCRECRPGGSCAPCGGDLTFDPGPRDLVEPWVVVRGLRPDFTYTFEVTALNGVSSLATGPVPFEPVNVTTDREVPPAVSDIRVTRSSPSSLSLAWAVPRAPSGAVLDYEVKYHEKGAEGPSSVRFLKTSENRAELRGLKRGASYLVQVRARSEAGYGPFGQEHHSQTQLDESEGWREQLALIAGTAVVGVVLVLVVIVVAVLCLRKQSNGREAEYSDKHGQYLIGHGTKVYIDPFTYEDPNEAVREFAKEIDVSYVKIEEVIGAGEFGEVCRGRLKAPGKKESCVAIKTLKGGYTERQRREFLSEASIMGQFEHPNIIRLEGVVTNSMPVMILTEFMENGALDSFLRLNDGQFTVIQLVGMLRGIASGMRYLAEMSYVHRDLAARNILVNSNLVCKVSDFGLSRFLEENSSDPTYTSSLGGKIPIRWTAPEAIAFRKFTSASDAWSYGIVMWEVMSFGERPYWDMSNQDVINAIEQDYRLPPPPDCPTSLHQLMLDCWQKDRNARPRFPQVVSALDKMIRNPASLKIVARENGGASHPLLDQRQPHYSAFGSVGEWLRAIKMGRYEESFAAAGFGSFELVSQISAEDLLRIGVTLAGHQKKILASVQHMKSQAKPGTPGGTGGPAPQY
# EphA2 = EphA2 (Homo sapiens, UniProt P29317); assay: Internalization of endogenous EphA2 in parental MDA-MB-231 cells (immunofluorescence); type: cell-based; conditions: two hours, 50 μM
# Sequence of EphA2 (P29317 24-976): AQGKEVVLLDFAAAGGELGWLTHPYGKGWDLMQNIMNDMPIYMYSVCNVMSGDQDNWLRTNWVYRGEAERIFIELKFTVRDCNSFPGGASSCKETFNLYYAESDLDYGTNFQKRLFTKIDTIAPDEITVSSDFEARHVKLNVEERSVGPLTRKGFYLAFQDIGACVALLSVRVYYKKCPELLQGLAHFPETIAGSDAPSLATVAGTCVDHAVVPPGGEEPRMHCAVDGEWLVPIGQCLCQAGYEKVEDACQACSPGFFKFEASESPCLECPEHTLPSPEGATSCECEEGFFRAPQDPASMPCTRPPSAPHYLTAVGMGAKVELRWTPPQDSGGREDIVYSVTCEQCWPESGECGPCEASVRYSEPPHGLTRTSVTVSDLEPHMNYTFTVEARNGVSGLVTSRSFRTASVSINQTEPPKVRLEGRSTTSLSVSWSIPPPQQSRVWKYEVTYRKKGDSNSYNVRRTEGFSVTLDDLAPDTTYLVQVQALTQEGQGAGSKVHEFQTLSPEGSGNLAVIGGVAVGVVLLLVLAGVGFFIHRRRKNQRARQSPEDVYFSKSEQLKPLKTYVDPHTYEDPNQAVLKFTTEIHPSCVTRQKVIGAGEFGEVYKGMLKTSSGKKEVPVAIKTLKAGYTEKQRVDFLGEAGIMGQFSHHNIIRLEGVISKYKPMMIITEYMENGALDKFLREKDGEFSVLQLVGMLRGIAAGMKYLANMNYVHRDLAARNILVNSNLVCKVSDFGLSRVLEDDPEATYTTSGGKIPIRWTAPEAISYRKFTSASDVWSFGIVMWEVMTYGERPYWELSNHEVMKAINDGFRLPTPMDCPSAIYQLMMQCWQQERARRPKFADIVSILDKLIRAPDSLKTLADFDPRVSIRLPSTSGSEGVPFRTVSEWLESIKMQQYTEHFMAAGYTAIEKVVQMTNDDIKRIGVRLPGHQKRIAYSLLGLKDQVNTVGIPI
# Experimental: Cells were plated in 24-well dishes at a density of 100,000 cells/well and grown for 24 hours prior to stimulation with appropriate compounds and ephrins for the given amounts of time. Compounds were prepared in DMSO at 500 times the final concentrations and 0.2% DMSO was used as vehicle control. Following treatment, cells were lysed directly in SDS Gel Loading Buffer and immunoblotted as described previously. Immunoprecipitation and immunofluorescence staining was performed as described. For immunoprecipitation, 300,000 cells/well were plated in 6-well dishes and lysed in modified RIPA Buffer (20 mM Tris-HCl pH 7.4, 20 mM NaF, 150 mM NaCl, 10% glycerol, 0.1% SDS, 0.5% DCA, 2 mM EDTA, 1% Triton X-100) following treatment. Either […] of ephrin-A1-Fc, or […] of EphA2 mouse monoclonal antibody (Clone D7, Millipore) were used, and mouse IgG was used as a negative control for EphA2 IP.
# Similar to other receptor tyrosine kinases, activation of the EphA2 receptor by its ligand, ephrin-A1, results in receptor internalization and eventual degradation. […] This was first performed using the U373 glioma cell line engineered to overexpress EphA2.
# PC-3 cells = assay: Cell rounding analysis; type: cell-based, human; conditions: 50 µM, 30 or 60 min
# Description: As we first reported in 2000, EphA2 activation on PC-3 cells by ephrin-A1 induced rapid cell rounding, a phenomenon that is correlated with inhibition of integrin function.
# A172-A2 glioma cells = assay: Haptotactic cell migration toward fibronectin (modified Boyden chamber); type: cell-based; conditions: 4 hours
# Description: (§1) One of the well-established functions of Eph receptors is the ligand-dependent repulsive guidance of cell migration. As a ligand-mimicking agonist for EphA2, doxazosin is expected to activate EphA2 on tumor cells and repulse migrating tumor cells in vitro. To test this possibility, we first investigated the effects of doxazosin on integrin-mediated haptotactic cell migration toward fibronectin in a modified Boyden chamber cell migration assay. […] The inhibitory effects were observed when doxazosin was presented either in the bottom chamber, or in both top and bottom chambers in the Transwell assay system. […] Therefore, doxazosin can recapitulate a key function attributed to its native ligands, i.e., negative regulation of cell migration.
# [1] = test system: MDA-MB-231 breast cancer cells; assay: as above; type: cell-based; conditions: MDA-MB-231 cells, 4 hours
# Description: as §1
smiles,measurement,setting,value
COc1cc2nc(N3CCN(C(=O)C4COc5ccccc5O4)CC3)nc(N)c2cc1OC (stereo not drawn) [doxazosin],"EphA3 activation, Eph receptor panel",EphA3,weak
same,endogenous EphB4 activation,EphB4,not activated
same,internalization of endogenous EphA2,EphA2,significant internalization of the endogenous EphA2
same,cell rounding,PC-3 cells,caused rounding of PC-3 cells
same,haptotactic cell migration toward fibronectin,A172-A2 glioma cells,dose-dependent inhibition of cell migration
same,haptotactic cell migration toward fibronectin,[1],dose-dependent inhibition of cell migration
